From patent US10662174B2, “BTK inhibitor” (Hubei Bio-Pharmaceutical Industrial Technological Institute …, priority 2015, dated 2020)

biological target: T1, BTK kinase (Homo sapiens, UniProt Q06187); test: Assay of inhibition activity of BTK in vitro (HTRF kit, read on Envision); type: biochemical; details: not given
T1 construct: purchased Invitrogen PR5442A
Protocol: Assay of Inhibition Activity of BTK In Vitro
The inhibition of compounds on BTK kinase was evaluated by […] detected by Envision, using the IC50 value of the compounds as index.
BTK kinase: Invitrogen-PR5442A
HTRF Assay Kit: Cisbio-62TKOPEJ
Plate for compound preparation: Greiner-781280
Cisbio HTRF Kit: Cisbio-62TKOPEJ
Centrifuge: Eppendorf-5810R
Bravo: Agilent Technologies-Bravo
Gradient Dilution of Compounds: […]
The test compound was dissolved with DMSO to be of 1 mM as a stock solution. Such a stock solution was diluted with DMSO by 10-fold, thereby obtaining an initial solution in a concentration of […] which was added into wells at the second column in a plate. 20 μL DMSO was added to other wells using Bravo. Then, 10 μL of the initial solution was transferred from wells at the second column to wells at the third column, followed by mixing obtained solution in the wells at the third column, thereby obtain a first diluted solution in a concentration of 1/3 μM. Subsequently, 10 μL of the first diluted solution was further transferred from wells at the third column to wells at the fourth column, followed by mixing obtained solution in the wells at the fourth column, thereby obtain a second diluted solution in a concentration of 1/9 μM. Such a three-fold serial dilution was performed 10 times, with 11 solutions in series diluted concentrations and a final diluted solution in a concentration of 0.017 nM obtained.
All diluted solutions were further diluted by 25-fold with ultrapure water, thus obtain test solutions, which were equilibrated at r.t. for 30 min before use.
To 2.5 μL of test solution, which was pipetted into each well of Assay plate using Bravo, 5 μL kinase mixture was added using the multi-channel pipettor. The mixture was centrifuged at 1000 rpm for 20 s, followed by incubation at 23° C. for 30 min. The reaction was initiated by 2.5 μL ATP mixture which was pipetted into the wells by Multidrop.
The reaction mixture of BTK kinase (10 μL) included 1.0 nM BTK, 1 μM biotin-TK1 peptide and 20 μM ATP. The reaction buffer included 50 mM Hepes (pH7.5), 10 mM MgCl2 and 0.01 mM […]. The kinase mixture was reacted in incubator at 23° C. for 90 mim.
The reaction was stopped by adding 10 μL Detection Reagent to each well of Assay plate, and the plate was left in incubator at 23° C. for 1 h before read on Envision.
Data analysis: The IC50 values of compounds were calculated using Excel fit.

T1 sequence (Q06187 whole entry): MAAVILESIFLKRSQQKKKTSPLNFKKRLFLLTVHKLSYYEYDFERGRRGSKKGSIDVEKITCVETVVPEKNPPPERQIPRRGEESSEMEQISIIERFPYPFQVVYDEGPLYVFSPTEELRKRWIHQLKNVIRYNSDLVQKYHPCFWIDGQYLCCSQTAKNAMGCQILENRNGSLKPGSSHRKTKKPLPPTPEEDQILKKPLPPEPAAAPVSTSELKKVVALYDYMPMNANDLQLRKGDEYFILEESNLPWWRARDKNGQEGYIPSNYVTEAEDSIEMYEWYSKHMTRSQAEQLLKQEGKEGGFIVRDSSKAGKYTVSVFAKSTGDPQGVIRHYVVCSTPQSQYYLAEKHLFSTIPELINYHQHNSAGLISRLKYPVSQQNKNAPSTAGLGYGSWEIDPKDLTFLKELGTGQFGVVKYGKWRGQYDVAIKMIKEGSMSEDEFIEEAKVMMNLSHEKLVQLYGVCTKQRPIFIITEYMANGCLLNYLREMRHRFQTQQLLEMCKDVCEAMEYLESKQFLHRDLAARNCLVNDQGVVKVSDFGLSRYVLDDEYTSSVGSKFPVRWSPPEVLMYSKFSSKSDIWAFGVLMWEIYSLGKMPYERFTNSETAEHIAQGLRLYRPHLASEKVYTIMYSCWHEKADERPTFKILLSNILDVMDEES

Compound | IC50 [µM]
CN1CCNC(=O)C1c1ccc(Nc2ccc(-c3ccc4c(c3)c(C(=O)c3ccc(C5CC5)cc3F)cn4C)n(C)c2=O)cc1 (centres unmarked) [Example 16] | 0.1 to 1

same assay, conditions: 1.0 nM BTK, 1 μM biotin-TK1 peptide, 20 μM ATP, 23° C., tested by Envision; read-out: BTK IC50

Compound | IC50 [µM]
C=CC(=O)N1CCCC(n2nc(-c3ccc(Oc4ccccc4)cc3)c3c(N)nn(CC(F)(F)F)c(=O)c32)C1 (centres unmarked) [Example 87] | 1 to 10
C=CC(=O)N1CCCC(n2nc(-c3ccc(Oc4ccccc4)cc3)c3c(N)nn(CC)c(=O)c32)C1 (centres unmarked) [Example 86] | 1 to 10
C=CC(=O)N1CCCC(n2nc(-c3ccc(Oc4ccccc4)cc3)c3c(N)nn(C)c(=O)c32)C1 (centres unmarked) [Example 85] | 0.1 to 1
C=CC(=O)Nc1ccc2ncn(-c3nc(Nc4ccc(OCCOC)cc4)ncc3F)c2c1 [Example 14] | 1 to 10
C=CC(=O)N1CCC(n2nc(-c3ccc(Oc4ccccc4)cc3)c3c(N)n[nH]c(=O)c32)C1 (centres unmarked) [Example 43] | < 0.1
CN(C)C/C=C/C(=O)N[C@H]1CC[C@@H](n2nc(-c3ccc(Oc4ccccc4)cc3)c3c(N)n[nH]c(=O)c32)CC1 [Example 59] | < 0.1
Cc1c(-c2cc(Nc3ccc(C4C(=O)NCCN4C)cc3)c(=O)n(C)c2)cccc1-c1ccc(-c2ccccc2)n(C)c1=O (centres unmarked) [Example 12] | 1 to 10
C=CC(=O)N1CC(n2nc(-c3ccc(Oc4ccccc4)cc3)c3c(N)n[nH]c(=O)c32)C1 [Example 73] | < 0.1
C=CC(=O)Nc1cccc(-n2cnc3cnc(Nc4ccc(OCCOC)cc4)nc32)c1 [Example 24] | 1 to 10
C=CC(=O)N1CCCC(n2nc(-c3ccc(Oc4ccccc4F)cc3)c3c(N)n[nH]c(=O)c32)C1 (centres unmarked) [Example 71] | < 0.1
C=CC(=O)N1CCCC(n2nc(-c3ccc(Oc4ccccc4)cc3)c3c(N)n[nH]c(=O)c32)C1 (centres unmarked) [Example 20] | < 0.1
C=CC(=O)N1CCCC(c2c3c(=O)[nH]nc(N)c3nn2-c2ccc(Oc3ccccc3)cc2)C1 (centres unmarked) [Example 78] | 0.1 to 1
C=CC(=O)N1CCCC(n2nc(-c3ccc(Oc4ccccc4)cc3)c3c(N)nn(C4CC4)c(=O)c32)C1 (centres unmarked) [Example 52] | < 0.1
C=CC(=O)Nc1ccc2ncn(-c3ncnc(Nc4ccc(OCCOC)cc4)n3)c2c1 [Example 27] | 1 to 10
CN(C)C/C=C/C(=O)N1CCC[C@@H](n2nc(-c3ccc(Oc4ccccc4)cc3)c3c(N)n[nH]c(=O)c32)C1 [Example 81] | < 0.1
COCCOc1ccc(Nc2ncc3[nH]c(CCN)nc3n2)cc1 [Example 23] | 1 to 10
C=CC(=O)N1CCC[C@@H](n2nc(-c3ccc(Oc4ccc(C)cn4)cc3)c3c(N)n[nH]c(=O)c32)C1 [Example 91] | < 0.1
N#CC(=CC1CC1)C(=O)N1CCC[C@@H](n2nc(-c3ccc(Oc4ccccc4)cc3)c3c(N)n[nH]c(=O)c32)C1 [Example 76] | < 0.1
C=CC(=O)N(C)CCn1nc(-c2ccc(Oc3ccccc3)cc2)c2c(N)n[nH]c(=O)c21 [Example 31] | < 0.1
C=CS(=O)(=O)N[C@H]1CC[C@@H](n2nc(-c3ccc(Oc4ccccn4)cc3)c3c(N)n[nH]c(=O)c32)CC1 [Example 39] | < 0.1
C=CC(=O)N1CCCC(Nc2ncnc(N)c2C(=O)c2ccc(Oc3ccccc3)cc2Cl)C1 (centres unmarked) [Example 42] | 0.1 to 1
C=CC(=O)N1CC2(CC(n3nc(-c4ccc(Oc5ccccc5)cc4)c4c(N)n[nH]c(=O)c43)C2)C1 [Example 46] | < 0.1
C=CC(=O)N1CCC[C@@H](n2nc(-c3ccc(OC4CC5CC5C4)cc3)c3c(N)n[nH]c(=O)c32)C1 (some centres unmarked) [Example 35] | < 0.1
C=CC(=O)Nc1cccc2c1cnn2-c1nc(Nc2ccc(OCCOC)cc2)ncc1F [Example 13] | 1 to 10
C=CC(=O)N1CCC[C@@H](Nc2ncnc(N)c2-n2ncc3cc(OCCOC)ccc32)C1 [Example 19] | 1 to 10
C=CC(=O)N1CCC[C@@H](Nc2ncnc(N)c2-n2ncc3cc(Oc4ccccc4)ccc32)C1 [Example 18] | 1 to 10
C=CC(=O)N1CCC[C@@H](n2nc(-c3ccc(OC4CC4)cc3)c3c(N)n[nH]c(=O)c32)C1 [Example 33] | < 0.1
C=CC(=O)N1CCCC(n2nc(-c3ccc(Oc4ccccn4)cc3)c3c(N)n[nH]c(=O)c32)C1 (centres unmarked) [Example 68] | < 0.1
